According to patent publication US20070049593A1 (priority 2004, published 2007):
Where a name gives a salt, the structure may show the parent alone.

target: T1, HCV polymerase (Hepatitis C virus genotype 1b, UniProt P26663); assay: biochemical; set-up: species or system HCV BK strain
T1 construct: a region encoding NS5B (J Virol 1991 March, 65(3), 1105-13, 544 amino acids after deletion of 47 amino acids on the C-terminal); 6xHis (C); made in house; host or cells: Escherichia coli
Description: The evaluation of the HCV polymerase inhibitory activity of the compound of the present invention is explained in the following. This polymerase is an enzyme coded for by the non-structural protein region called NS5B on the genome RNA of HCV (EMBO J., 15:12-22, 1996).
Using, as a template, a cDNA clone corresponding to the full length genome RNA of HCV BK strain obtained from the blood of a patient with hepatitis C, a region encoding NS5B (J Virol 1991 March, 65(3), 1105-13, 544 amino acids after deletion of 47 amino acids on the C-terminal) was amplified by PCR. The objective gene was prepared by adding a 6 His tag {base pair encoding 6 continuous histidine (His)}to the 3′ end thereof and transformed to Escherichia coli. The Escherichia coli capable of producing the objective protein was cultured. The obtained cells were suspended in a buffer solution and crushed in a microfluidizer.
Using a synthetic primer designed based on the sequence of HCV genomic 3′ untranslated region, a DNA fragment (148 bp) containing polyU and 3′X sequence was entirely synthesized and cloned into plasmid pBluescript SK II(+) (Stratagene). The cDNA encoding full length NS5B, which was prepared in i) above, was digested with restriction enzyme KpnI to give a cDNA fragment containing the nucleotide sequence of from the restriction enzyme cleavage site to the termination codon. This cDNA fragment was inserted into the upstream of 3′ untranslated region of the DNA in pBluescript SK II(+) and ligated. The about 450 bp inserted DNA sequence was used as a template in the preparation of substrate RNA.
RNA was synthesized (37° C., 3 hr) by run-off method using this purified DNA as a template, a promoter of pBluescript SK II(+), MEGAscript RNA synthesis kit (Ambion) and T7 RNA polymerase. DNase I was added and the mixture was incubated for 1 hr. The template DNA was removed by decomposition to give a crude RNA product.
A test substance (compound of the present invention) and a reaction mixture (30 μl) having the following composition were reacted at 25° C. for 90 min.
10% Trichloroacetic acid at 4° C. and 1% sodium pyrophosphate solution (150 μl) were added to this reaction mixture to stop the reaction. The reaction mixture was left standing in ice for 15 min to insolubilize RNA. This RNA was trapped on a glass filter (Whatman GF/C and the like) upon filtration by suction. This filter was washed with a solution containing 1% trichloroacetic acid and 0.1% sodium pyrophosphate, washed with 90% ethanol and dried. A liquid scintillation cocktail (Packard) was added and the radioactivity of RNA synthesized by the enzyme reaction was measured on a liquid scintillation counter.
The HCV polymerase inhibitory activity (IC50) of the compound of the present invention was calculated from the values of radioactivity of the enzyme reaction with and without the test substance.
Reaction mixture: HCV polymerase (0.5 μg/ml) obtained in i), substrate RNA (5 μg/ml) obtained in ii), ATP (50 μM), GTP (50 μM), CTP ([…]), UTP (2 μM), [5,6-^3H]UTP (46 Ci/mmol (Amersham), 1 μCi) 20 mM Tris-HCl (pH 7.5), EDTA (1 mM), MgCl2 (5 mM), NaCl (50 mM), DTT (1 mM), BSA (0.01%)

T1 sequence (P26663 2420-2963): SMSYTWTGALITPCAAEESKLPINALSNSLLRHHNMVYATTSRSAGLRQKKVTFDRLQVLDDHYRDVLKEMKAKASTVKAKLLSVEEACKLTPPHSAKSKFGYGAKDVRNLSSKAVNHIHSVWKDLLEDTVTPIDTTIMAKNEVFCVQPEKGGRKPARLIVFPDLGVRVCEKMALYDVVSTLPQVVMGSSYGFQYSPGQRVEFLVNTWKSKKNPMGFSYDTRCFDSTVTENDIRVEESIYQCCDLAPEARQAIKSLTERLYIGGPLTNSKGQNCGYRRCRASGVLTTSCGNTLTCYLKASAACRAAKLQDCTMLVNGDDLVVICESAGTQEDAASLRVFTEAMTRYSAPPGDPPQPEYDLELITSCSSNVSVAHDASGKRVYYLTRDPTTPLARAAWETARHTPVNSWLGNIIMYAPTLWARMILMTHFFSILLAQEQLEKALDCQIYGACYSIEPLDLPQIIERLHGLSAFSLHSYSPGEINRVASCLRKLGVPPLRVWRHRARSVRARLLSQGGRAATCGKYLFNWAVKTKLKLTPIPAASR

Structure (SMILES) | IC50
CCN1CCN(CCN2CCn3c(c(C4CCCCC4)c4ccc(C(=O)O)cc43)-c3ccccc32)CC1 [Example 1-38, 13-cyclohexyl-5-[2-(4-ethylpiperazin-1-yl)ethyl]-6,7-dihydro-5H-benzo[5,6][1,4]diazepino[7,1-a]indole-10-carboxylic acid dihydrochloride] | < 100 nM
COC1CCN(CCN2CCn3c(c(C4CCCCC4)c4ccc(C(=O)O)cc43)-c3ccccc32)CC1 [Example 1-39, 13-cyclohexyl-5-[2-(4-methoxypiperidin-1-yl)ethyl]-6,7-dihydro-5H-benzo[5,6][1,4]diazepino[7,1-a]indole-10-carboxylic acid dihydrochloride] | < 100 nM
COCCN(C)CCN1CCn2c(c(C3CCCCC3)c3ccc(C(=O)O)cc32)-c2ccccc21 [Example 1-40, 13-cyclohexyl-5-{2-[N-(2-methoxyethyl)-N-methylamino]ethyl}-6,7-dihydro-5H-benzo[5,6][1,4]diazepino[7,1-a]indole-10-carboxylic acid dihydrochloride] | < 100 nM
O=C(O)c1ccc2c(C3CCCCC3)c3n(c2c1)CCN(CCc1ccccc1)c1ccccc1-3 [Example 1-41, 13-cyclohexyl-5-phenethyl-6,7-dihydro-5H-benzo[5,6][1,4]diazepino[7,1-a]indole-10-carboxylic acid monohydrochloride] | < 100 nM
O=C(O)c1ccc2c(C3CCCCC3)c3n(c2c1)CCN(CCN1CCC(O)CC1)c1ccccc1-3 [Example 1-42, 13-cyclohexyl-5-[2-(4-hydroxypiperidin-1-yl)ethyl]-6,7-dihydro-5H-benzo[5,6][1,4]diazepino[7,1-a]indole-10-carboxylic acid dihydrochloride] | < 100 nM
CN(C)C1CCN(C(=O)CN2CCn3c(c(C4CCCCC4)c4ccc(C(=O)O)cc43)-c3ccccc32)CC1 [Example 1-43, 13-cyclohexyl-5-[2-(4-dimethylaminopiperidin-1-yl)-2-oxoethyl]-6,7-dihydro-5H-benzo[5,6][1,4]diazepino[7,1-a]indole-10-carboxylic acid dihydrochloride] | < 100 nM
CN(C)C1CCN(CCN2CCn3c(c(C4CCCCC4)c4ccc(C(=O)O)cc43)-c3ccccc32)CC1 [Example 1-44, 13-cyclohexyl-5-[2-(4-dimethylaminopiperidin-1-yl)ethyl]-6,7-dihydro-5H-benzo[5,6][1,4]diazepino[7,1-a]indole-10-carboxylic acid trihydrochloride] | < 100 nM
O=C(O)c1ccc2c(C3CCCCC3)c3n(c2c1)CCN(CC(=O)N1CCS(=O)(=O)CC1)c1ccccc1-3 [Example 1-45, 13-cyclohexyl-5-[2-(1,1-dioxothiomorpholin-4-yl)-2-oxoethyl]-6,7-dihydro-5H-benzo[5,6][1,4]diazepino[7,1-a]indole-10-carboxylic acid monohydrochloride] | < 100 nM
CCOC(=O)N1CCN(C(=O)CN2CCn3c(c(C4CCCCC4)c4ccc(C(=O)O)cc43)-c3ccccc32)CC1 [Example 1-46, 13-cyclohexyl-5-[2-(4-ethoxycarbonylpiperazin-1-yl)-2-oxoethyl]-6,7-dihydro-5H-benzo[5,6][1,4]diazepino[7,1-a]indole-10-carboxylic acid monohydrochloride] | < 100 nM
CC(C)N1CCN(C(=O)CN2CCn3c(c(C4CCCCC4)c4ccc(C(=O)O)cc43)-c3ccccc32)CC1 [Example 1-47, 13-cyclohexyl-5-[2-(4-isopropylpiperazin-1-yl)-2-oxoethyl]-6,7-dihydro-5H-benzo[5,6][1,4]diazepino[7,1-a]indole-10-carboxylic acid dihydrochloride] | < 100 nM
CC(C)N1CCN(CCN2CCn3c(c(C4CCCCC4)c4ccc(C(=O)O)cc43)-c3ccccc32)CC1 [Example 1-48, 13-cyclohexyl-5-[2-(4-isopropylpiperazin-1-yl)ethyl]-6,7-dihydro-5H-benzo[5,6][1,4]diazepino[7,1-a]indole-10-carboxylic acid trihydrochloride] | < 100 nM
O=C(O)c1ccc2c(C3CCCCC3)c3n(c2c1)CCN(CC(=O)N1CCCOCC1)c1ccccc1-3 [Example 1-49, 13-cyclohexyl-5-[2-(1,4-oxazepan-4-yl)-2-oxoethyl]-6,7-dihydro-5H-benzo[5,6][1,4]diazepino[7,1-a]indole-10-carboxylic acid monohydrochloride] | < 100 nM
CN1CCN(C(=O)CN2CCn3c(c(C4CCCCC4)c4ccc(C(=O)O)cc43)-c3ccccc32)CC1 [Example 1-50, 13-cyclohexyl-5-[2-(4-methylpiperazin-1-yl)-2-oxoethyl]-6,7-dihydro-5H-benzo[5,6][1,4]diazepino[7,1-a]indole-10-carboxylic acid dihydrochloride] | < 100 nM
CC(=O)N1CCN(C(=O)CN2CCn3c(c(C4CCCCC4)c4ccc(C(=O)O)cc43)-c3ccccc32)CC1 [Example 1-51, 5-[2-(4-acetylpiperazin-1-yl)-2-oxoethyl]-13-cyclohexyl-6,7-dihydro-5H-benzo[5,6][1,4]diazepino[7,1-a]indole-10-carboxylic acid monohydrochloride] | < 100 nM
CN1CCN(CCN2CCn3c(c(C4CCCCC4)c4ccc(C(=O)O)cc43)-c3ccccc32)CC1 [Example 1-52, 13-cyclohexyl-5-[2-(4-methylpiperazin-1-yl)ethyl]-6,7-dihydro-5H-benzo[5,6][1,4]diazepino[7,1-a]indole-10-carboxylic acid trihydrochloride] | < 100 nM
CN1CCCN(CCN2CCn3c(c(C4CCCCC4)c4ccc(C(=O)O)cc43)-c3ccccc32)CC1 [Example 1-53, 13-cyclohexyl-5-[2-(4-methyl-1,4-diazepan-1-yl)ethyl]-6,7-dihydro-5H-benzo[5,6][1,4]diazepino[7,1-a]indole-10-carboxylic acid trihydrochloride] | < 100 nM
CN1CCCN(C(=O)CN2CCn3c(c(C4CCCCC4)c4ccc(C(=O)O)cc43)-c3ccccc32)CC1 [Example 1-54, 13-cyclohexyl-5-[2-(4-methyl-1,4-diazepan-1-yl)-2-oxoethyl]-6,7-dihydro-5H-benzo[5,6][1,4]diazepino[7,1-a]indole-10-carboxylic acid dihydrochloride] | < 100 nM
CCN1CCN(C(=O)CN2CCn3c(c(C4CCCCC4)c4ccc(C(N)=O)cc43)-c3ccccc32)CC1 [Example 1-55, 13-cyclohexyl-5-[2-(4-ethylpiperazin-1-yl)-2-oxoethyl]-6,7-dihydro-5H-benzo[5,6][1,4]diazepino[7,1-a]indole-10-carboxamide] | < 100 nM
O=C(O)c1ccc2c(C3CCCCC3)c3n(c2c1)CCN(CC(=O)N1CCCC1)c1ccccc1-3 [Example 1-56, 13-cyclohexyl-5-[2-oxo-2-(pyrrolidin-1-yl)ethyl]-6,7-dihydro-5H-benzo[5,6][1,4]diazepino[7,1-a]indole-10-carboxylic acid monohydrochloride] | < 100 nM
O=C(O)c1ccc2c(C3CCCCC3)c3n(c2c1)CCN(CCN1CCCC1)c1ccccc1-3 [Example 1-57, 13-cyclohexyl-5-[2-(pyrrolidin-1-yl)ethyl]-6,7-dihydro-5H-benzo[5,6][1,4]diazepino[7,1-a]indole-10-carboxylic acid dihydrochloride] | < 100 nM
O=C(O)c1ccc2c(C3CCCCC3)c3n(c2c1)CCN(CC(=O)N1CCOCC1)c1cc(Cl)ccc1-3 [Example 1-60, 3-chloro-13-cyclohexyl-5-[2-(morpholin-4-yl)-2-oxoethyl]-6,7-dihydro-5H-benzo[5,6][1,4]diazepino[7,1-a]indole-10-carboxylic acid monohydrochloride] | < 100 nM
O=C(O)c1ccc2c(C3CCCCC3)c3n(c2c1)CCN(CCCC(=O)N1CCOCC1)c1ccccc1-3 [Example 1-61, 13-cyclohexyl-5-[4-(morpholin-4-yl)-4-oxobutyl]-6,7-dihydro-5H-benzo[5,6][1,4]diazepino[7,1-a]indole-10-carboxylic acid monohydrochloride] | < 100 nM
